Experimental data taken from patent publication US20080267903A1, “Bioactive Polymers” (priority 2004, published 2008).
“And” between values parts separate entries of the source, which are not always exact repeats. Identical values can stand only once.

What was measured:
[1] = test system: A431 epidermoid carcinoma cells; experiment: Cytostatic effects of cationic polymers on tumour cells in vitro (FIG. 1); type: cell-based; conditions: lysis control
Protocol: A431 epidermoid carcinoma cells were treated with various cationic polymers. PEI, Superfect and various DAB polymers were added to the culture medium at concentrations of 0.45 μL/mL, 5 μL/mL and 12.5 μg/mL respectively for the duration of the experiment.

[2] = test system: C33a Human Cervix Carcinoma (ATCC HTB31) xenografts; experiment: Established C33a xenografts, treatment q.2d 5x (FIG. 5); type: in vivo, mice; conditions: C33a cervix carcinomas, q.2d 5x i.v.
Protocol: (§1) Female mice (CD1-nu, initial mean weight 20 g) were housed in groups of five in suspended plastic cages at 19-23° C. with a 12 h light-dark cycle. A conventional diet (Rat and Mouse Standard Expanded, B and K Universal, Grimston, UK) and water from the mains were available ad libidum. Experimental work was carried out in accordance with UK Home Office regulations and approved by the local ethics committee.
(§2) Tumour cells [LS174 Human Colorectal Adenocarcinoma (ATCC CL-188), A431 Epidermoid Carcinoma (ATCC CRL-1555), C33a Human Cervix Carcinoma (ATCC HTB31)] were grown as monolayers in 75 cm^2 flasks in Dulbecco's Modified Eagle's Medium (DMEM) supplemented with 10% (v/v) foetal bovine serum (FBS) and 1% (v/v) glutamine, in a humid atmosphere of 5% CO2 at 37° C. Medium was changed twice a week. Cells were subcultured every seven days by trypsin treatment and experiments were conducted when the cells were in exponential phase. […]
(§3) Animals were injected intravenously (0.2 ml per injection) with the different formulations either once or alternatively on a schedule every other day (0.5 q.d.) over 10 days (every second day, 5 injection). […] Animals were monitored at regular intervals, the tumour size was determined using callipers, and body weight measured and recorded. Expression of genes containined on nucleic acids complexed with the various polymers was measured as described previously.

[3] = test system: A431 epidermoid carcinoma (ATCC CRL-1555); experiment: Established A431 xenografts, repeated injection every 2nd day over 10 days, long-term follow-up (FIGS. 6-8)
Protocol: A431 epidermoid carcinoma tumours were grafted into nude CD-1 mice and left to establish (˜5 mm). Animals were treated by injection of the relevant formulation every 2nd day over 10 days (5 injections). […] Tumour volume doubling time was measured as a surrogate endpoint as substantial tumour growth immediately precedes tumour related mortality.
All formulations were prepared as solutions (or suspensions) in 5% dextrose.
(§4) Animals were injected intravenously (0.2 ml per injection) with the different formulations either once or alternatively on a schedule every other day (0.5 q.d.) over 10 days (every second day, 5 injection). […] Each group consisted of 5 animals (n=5). As a control DAB 16-DNA complexes were prepared as previously described [36] by mixing dendrimer and DNA (50 μg) at a 5:1 weight ratio in a 5% dextrose solution (200 μl/animal). Free plasmid DNA (50 μg) was given in 200 μL 5% dextrose. Animals were monitored at regular intervals, the tumour size was determined using callipers, and body weight measured and recorded.

[4] = test system: LS174T Human Colorectal Adenocarcinoma (ATCC CCL-188) xenografts; experiment: Established LS174T xenografts, treatment q.2d 5x (FIG. 4); type: in vivo, mice; conditions: LS174T colorectal tumours, q.2d 5x i.v.
Protocol: as §1, §2, §3

[5] = cited from earlier work
[6] = Systemic toxicity, tolerability and body weight after intravenous injection (FIG. 3); type: in vivo
Protocol: All formulations were prepared as solutions (or suspensions) in 5% dextrose. Each dose contained 250 μg of DAB 4, DAB 16, DAB 32, QDAB8, respectively. The PAMAM dendrimer and linear PEI were given as dilutions of Superfect (100 μl per animal) and Exgen (9 μl per animal) respectively, in 5% dextrose solution.
as §4

With triton X the cell number [1] was “decrease in cell number consistent with cell lysis”.

In the case of `NCCCN(CCCN)CCCN(CCCN(CCCN)CCCN)CCCN(CCCCN(CCCN(CCCN(CCCN)CCCN)CCCN(CCCN)CCCN)CCCN(CCCN(CCCN)CCCN)CCCN(CCCN)CCCN)CCCN(CCCN(CCCN)CCCN)CCCN(CCCN)CCCN` [DAB16], the tumour growth [2] is reported as “inhibited tumour growth significantly”, the “survival of the treated mice” value ([3]; 0.5 q.d. X5, long term experiment) is reported as “long term survival” and the “complete disappearance of tumours, 2 mice” value ([3]; 0.5 q.d. X5, n=5) is reported as 43 days and 51 days. The “start of decrease of the tumour size, 2 mice” value ([3]; 0.5 q.d. X5, n=5) was 23 days, the “start of decrease of the tumour size, all the mice” value ([3]; 0.5 q.d. X5, n=5) was 33 days and the “long-term tumour growth delay (tumour volume doubling time as surrogate endpoint)” value ([3]; 5 injections over 10 days, FIG. 7) was “improved long-term growth reduction”. For the same compound, the tumour growth ([3]; A431 epidermoid carcinoma model, q.2d 5x i.v.) was “inhibited tumour growth significantly” and the tumour growth [4] was “inhibited tumour growth significantly”.

In the case of `N[C@@H](CO)C(=O)O` [Serine], the “pKa of the α-NH3+ group” value [5] is listed as 9.1.

For `N[C@@H](CC(=O)O)C(=O)O` [Aspartic acid], the “pKa of the α-NH3+ group” value [5] is given as 10.0.

In the case of `NCCCN(CCCN)CCCN(CCCCN(CCCN(CCCN)CCCN)CCCN(CCCN)CCCN)CCCN(CCCN)CCCN` [DAB8], the “time to death after i.v. injection” value [6] is reported as 5 to 10 s.

For `C[C@H](N)C(=O)O` [Alanine], the “pKa of the α-NH3+ group” value [5] is given as 9.9.
